# According to patent publication US20250270159A1, “1-(CYCLOBUTANEMETHYLIDENE)-2, 4, 5-TRIMETHOXYBENZENE COMPOUND AND PREPARATION METHOD AND USE THEREOF” (CHENGDU XINRUI TAIKANG TECHNOLOGY CO., LTD., priority 2023, published 2025):
# Experiments:
# [1] = test system: neurons in the substantia nigra region of the midbrain of PD mice; assay: Niehl's staining, number of neuronal Niehl's bodies in substantia nigra of PD mice; assay type: in vivo, C57 mice; details: Group D, CTMB 20 mg/kg ip, after 4 weeks of administration
# Experimental: The mice were randomly divided into a sham operation group (group S, given a blank emulsion with a volume equal to that of the administered group), a model group (group M, given a blank emulsion with a volume equal to that of the administered group), a CTMB group (20 mg/kg, group D), and a levodopa group (levodopa: benserazide hydrochloride=4:1, 12 mg/kg, group L), each group included 10-12 mice, and all of them were administered intraperitoneally.
# After completing the evaluation of motor function after 4 weeks of drug administration, the mice were deeply anesthetized, perfused with 20 mL of saline and 20 mL of 4% paraformaldehyde via the heart, and the brains were rapidly severed and extracted from the head, which were then preserved and fixed in 4% paraformaldehyde for 72 h after removal, and then embedded with paraffin to prepare the slices with a thickness of 4 μm for subsequent pathological and histological studies.
# Niehl's staining was used to identify Niehl's bodies in neuronal cells.
# TNF-α = TNF-α in cerebral cortex of TBI rats; assay type: in vivo, SD rats; details: 30 mg/kg ip 2 h after TBI; 24 h after administration; FIG. 3
# Experimental: The experimental grouping and drug administration plan were as follows. • Sham operation group (Group P): saline was given with the same volume as in the CTMB group; • Model group (T group): a blank emulsion was given with the same volume as in the CTMB group; • Medium dose group (Group M): a dose of 30 mg/kg of CTMB emulsion injection was given.
# The experimental grouping and drug administration plan were the same as the test 3. After 2 h of the TBI modeling, different groups of rats were administered intraperitoneally. After 24 h of the administration, the rats were deeply anesthetized, the head was severed and the brain was removed, about 60-120 mg of hemisphere cortex was taken out from the hemisphere on the blood side, 10 times the volume of ice-cold centrifugal buffer used for biochemical assays was added, homogenization was carried out in an ice bath for 10 min, and centrifugation was carried out at 4° C. and 14000 rpm/min for 30 min. The supernatant was extracted, and inflammatory factors IL-1, IL-6, and TNF-α were tested according to the instructions of IL-1, IL-6, and TNF-α assay kits, respectively.
compound,measurement,setting,value
"COc1cc(OC)c(OC)cc1C=C1CCC1 [CTMB, 1-(cyclobutylidenemethyl)-2,4,5-trimethoxybenzene]",Number of Niehl's bodies,[1],55.5 ± 4.0
same,content of TNF-α in cerebral cortex tissue,TNF-α,significantly reduced
